Source: US20250145624A1, “MEMBRANE-ASSOCIATED TYROSINE- AND THREONINE-SPECIFIC CDC2-INHIBITORY KINASE (PKMYT1) INHIBITORS AND USES THEREOF” (Insilico Medicine IP Limited, priority 2022, published 2025)

Key:
[1] = molecular target: PKMYT1 (MYT1) (Homo sapiens (Human), UniProt Q99640); assay: PKMYT1 HTRF Assay; type: binding; conditions: Tracer 178, GST-Tb; compound 10 μM to 0.5 nM
Experimental: Example A: PKMYT1 HTRF Assay
(§1) Compound serial dilution is performed by Echo, and the final concentrations vary from 10 μM to 0.5 nM. This was filled by the addition of 5 μL/well of Enzyme solution to the assay plate containing the compound. The plate was centrifuged at 1000 rpm for 1 minute, and incubate 15 minutes at 25° C. Then 5 μL/well of tracer solution (Tracer 178) was added to initiate the reaction, and incubate for 60 minutes at 25° C. Next 5 μL GST-Tb was added into the assay plate, the plate was centrifuged at 1000 rpm for 1 minute, and incubate for 15 minutes at 25° C. The assay plate was read on Envision.

[2] = molecular target: WEE1 (Homo sapiens (Human), UniProt P30291); assay: WEE1 ADP-Glo Assay; type: biochemical; conditions: compound 10 μM to 0.5 nM
Experimental: Example B: WEE1 ADP-Glo Assay
as §1, with “of substrate” for “of tracer”, “solution” for “solution (Tracer 178)”, “Next 10” for “Next 5”, “μL kinase detection reagent” for “μL GST-Tb”, “for 60” for “for 15”, “on Envision for US LUM as RLU.” for “on Envision.”

Chain of PKMYT1 (MYT1) (Q99640 whole entry): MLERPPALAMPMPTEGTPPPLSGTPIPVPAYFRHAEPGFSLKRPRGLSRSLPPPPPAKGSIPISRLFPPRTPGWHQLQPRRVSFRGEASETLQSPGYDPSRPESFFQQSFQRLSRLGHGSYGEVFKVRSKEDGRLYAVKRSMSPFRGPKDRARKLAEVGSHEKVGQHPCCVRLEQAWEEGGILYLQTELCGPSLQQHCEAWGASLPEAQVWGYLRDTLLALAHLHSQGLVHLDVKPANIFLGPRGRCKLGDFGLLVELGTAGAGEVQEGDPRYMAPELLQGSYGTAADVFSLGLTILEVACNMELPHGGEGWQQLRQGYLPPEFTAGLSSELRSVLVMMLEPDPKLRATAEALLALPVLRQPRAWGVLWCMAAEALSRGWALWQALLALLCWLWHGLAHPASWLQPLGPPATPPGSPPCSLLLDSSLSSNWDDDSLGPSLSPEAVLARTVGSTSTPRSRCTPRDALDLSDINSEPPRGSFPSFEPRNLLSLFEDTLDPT
Chain of WEE1 (P30291 whole entry): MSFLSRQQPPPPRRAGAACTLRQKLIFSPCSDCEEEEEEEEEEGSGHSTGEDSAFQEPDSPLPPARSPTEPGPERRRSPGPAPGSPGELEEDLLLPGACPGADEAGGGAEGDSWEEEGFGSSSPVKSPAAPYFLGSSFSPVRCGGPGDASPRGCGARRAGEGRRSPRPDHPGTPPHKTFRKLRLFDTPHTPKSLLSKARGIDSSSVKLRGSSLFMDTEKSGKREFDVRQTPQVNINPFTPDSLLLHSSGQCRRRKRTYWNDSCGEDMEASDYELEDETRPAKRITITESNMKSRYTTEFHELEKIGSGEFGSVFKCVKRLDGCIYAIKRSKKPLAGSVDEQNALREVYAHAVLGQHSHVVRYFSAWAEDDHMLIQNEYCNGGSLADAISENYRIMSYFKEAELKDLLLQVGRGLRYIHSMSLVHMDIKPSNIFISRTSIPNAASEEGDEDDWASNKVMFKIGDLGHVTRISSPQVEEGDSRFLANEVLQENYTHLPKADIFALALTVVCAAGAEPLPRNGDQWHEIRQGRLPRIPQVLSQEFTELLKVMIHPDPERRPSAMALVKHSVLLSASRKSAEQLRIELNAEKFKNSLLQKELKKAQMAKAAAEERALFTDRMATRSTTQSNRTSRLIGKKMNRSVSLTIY

Structure (SMILES)	IC50 [1]	IC50 [2]
Cc1ccc(O)c(C)c1-n1c(N)c2c3c(c(C)cnc31)CCNC2=O [Example 1, 1-amino-2-(3-hydroxy-2,6-dimethylphenyl)-5-methyl-2,6,7,8-tetrahydro-9H-2,3,8-triazabenzo[cd]azulen-9-one]	< 10 nM	1210 nM
Cc1nc2c3c(c(N)n(-c4c(C)ccc(O)c4C)c3n1)C(=O)NCC2 [Example 3, 1-amino-2-(3-hydroxy-2,6-dimethylphenyl)-4-methyl-2,6,7,8-tetrahydro-9H-2,3,5,8-tetraazabenzo[cd]azulen-9-one]	< 10 nM	
Cc1ccc(O)c(C)c1-n1c(N)c2c3c(c(C)ncc31)CCNC2=O [Example 2, 1-amino-2-(3-hydroxy-2,6-dimethylphenyl)-5-methyl-2,6,7,8-tetrahydro-9H-2,4,8-triazabenzo[cd]azulen-9-one]	10 to 50 nM	> 10000 nM
